This is an account of results in US20250170212A1, “COMPOSITIONS AND METHODS OF TREATING AMYOTROPHIC LATERAL SCLEROSIS (ALS) AND RELATED DISORDERS” (BIOINCEPT, LLC, priority 2022, published 2025).

This experiment has as its system NeuN positive cells (mature neurons). Briefly: Immunohistochemistry of mature neurons in brainstem motor nuclei. Type of experiment: in vivo, mouse. The note with it: facial and hypoglossal motor nuclei; compared to Injury. On the procedure:
At the end of experiment, mice were subjected to full body perfusion with 20% sucrose and 10% buffered formalin suitable for histology assays (Sigma Aldrich, St.Louis, MO, USA). Mice were decapitated and incubated in formalin for 24 h. Following the tissues (brain and spinal cord) were isolated, paraffin fixed for further analyses. After brain removal, the tissue was fixed in a formaldehyde solution (4%) for 2-4 hours at RT followed by 4° C. for a total time of 24-48 hours. Fixed tissues were embedded in paraffin and finally sectioned into 7 μm slices. […]
Assessment of neuronal and microglial positive cells were performed in the region of interest (ROI). […] The images were analyzed and reconstructed using Image J (US National Institutes of Health).
All quantifications were performed including the manual cell counts in a blinded manner. The NeuN and Ibal were counted as positive cells in the ROI (see above) as previously reported. The number of cells was determined by unbiased counting of positive cells. […] Differences between groups were analyzed using a repeated measure ANOVA model with a fixed effect for the group, of the time and a random intercept for the mouse. In a second, more explorative, approach for each group the time when the physical activity was first measured below a certain threshold was determined. […]

Take MVRIKPGSANKPSDD [sPIF]: the “number of mature neurons (NeuN positive cells)” value is reported as “significant protection of neuronal cells”.
